Counter-ions that a name gives are not always drawn.

The record followed here is the supplement of paper PMC12317010.

This data set is described as follows: collision cross section in nitrogen (drift tube, single-field); higher = larger gas-phase ion size.
The mark [1] stands for this setting: ion type: [M+Na], ion source: ESI, ion mode: Positive.
The mark [2] stands for this setting: ion type: [M+H], ion source: APCI, ion mode: Positive.
Where [3] appears, read: ion type: [M+H], ion source: ESI, ion mode: Positive.
Where [4] appears, read: ion type: [M-H], ion source: ESI, ion mode: Negative.
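Note: chemical standards at 10 µM analysed by drift tube IMS-QTOF MS in about 3.95 torr nitrogen, mean of duplicate injections differing ≤1%, mass error below 10 ppm.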

As to `CCOC(=O)C(SP(=S)(OC)OC)c1ccccc1` (stereo unspecified) [Phenthoate], the “collision cross section in nitrogen” value under setting [1] is 175.1 Å².

Turning to `c1ccc([C@H]2CN3CCSC3=N2)cc1` [Levamisole hydrochloride], the “collision cross section in nitrogen” value runs as follows: under setting [2], 144.2 Å²; under setting [3], 144.8 Å²; under setting [1], 155.8 Å². Consider `O=C(O)CCc1ccccc1` [Hydrocinnamic acid], for which the “collision cross section in nitrogen” value under setting [4] came to 139 Å². Still for that read-out and setting: next, `Cc1ccc(N)c(S(=O)(=O)O)c1` [2-Amino-5-methylbenzenesulfonic acid]: 137.9 Å²; `CC(C)(C)c1cc(C(C)(C)C)c(O)c(C(C)(C)C)c1` [2,4,6-Tris(tert-butyl)phenol]: 173.2 Å²; `Cc1ccc(N)c([N+](=O)[O-])c1` [4-Methyl-2-nitroaniline]: 127.7 Å². With `CC1(C)NC(=O)N(c2ccc([N+](=O)[O-])c(C(F)(F)F)c2)C1=O` [Nilutamide], the “collision cross section in nitrogen” value under setting [4] worked out at 162.8 Å². Turning to `C[C@H]1C[C@H]2[C@@H]3CCC4=CC(=O)C=C[C@]4(C)[C@@]3(F)[C@@H](O)C[C@]2(C)[C@@]1(O)C(=O)CO` [Betamethasone], the “collision cross section in nitrogen” value runs as follows: under setting [3], 177.2 Å²; under setting [1], 215.2 Å². Take `Cc1cc(Cl)ccc1O` [4-Chloro-2-methylphenol]: the “collision cross section in nitrogen” value under setting [4] amounted to 124.8 Å². Regarding `CC1(C)O[C@@H]2C[C@H]3[C@@H]4C[C@H](F)C5=CC(=O)CC[C@]5(C)[C@H]4[C@@H](O)C[C@]3(C)[C@]2(C(=O)CO)O1` [Flurandrenolide], the “collision cross section in nitrogen” value is 186.9 Å² under setting [3] and 201.8 Å² under setting [4]. As to `Cc1cnc(C2=NC(=O)C(C)(C(C)C)N2)c(C(=O)O)c1` (stereo unspecified) [Imazapic], the “collision cross section in nitrogen” value is, setting by setting: under setting [2], 162.2 Å²; under setting [3], 162.4 Å²; under setting [1], 178.8 Å²; under setting [4], 168.3 Å². `CC(=O)c1ccc(O)cc1Br` [1-(2-Bromo-4-hydroxyphenyl)ethanone]: under setting [4], the “collision cross section in nitrogen” value is recorded as 130.1 Å². As to `CC(C)(C)c1cc(CCC(=O)NCCCCCCNC(=O)CCc2cc(C(C)(C)C)c(O)c(C(C)(C)C)c2)cc(C(C)(C)C)c1O` [Antioxidant 1098], the “collision cross section in nitrogen” value is, setting by setting: under setting [2], 263.2 Å²; under setting [3], 263.3 Å²; under setting [1], 259.8 Å²; (ion type: [M+], ion source: APCI, ion mode: Positive) 271.7 Å²; under setting [4], 252.1 Å². For the compound `Cc1cc(C(F)(C(F)(F)F)C(F)(F)F)ccc1NC(=O)c1cccc(I)c1C(=O)NC(C)(C)CS(C)(=O)=O` [Flubendiamide], the “collision cross section in nitrogen” value by setting is: under setting [1], 222.6 Å²; under setting [4], 222.1 Å². On the same counts, the results for `C[C@H]1C[C@H]2[C@@H]3CCC4=CC(=O)C=C[C@]4(C)[C@@]3(F)[C@@H](O)C[C@]2(C)[C@@]1(O)C(=O)COP(=O)(O)O` [Betamethasone 21-phosphate disodium] are 211.7 Å² and 199.8 Å². `O=[N+]([O-])c1cc(C(F)(F)F)c(Cl)c([N+](=O)[O-])c1Nc1ncc(C(F)(F)F)cc1Cl` [Fluazinam]: the “collision cross section in nitrogen” value under setting [4] was 182.2 Å². Same read-out and setting: next, `O=S(O)CO` [Hydroxymethanesulfinic acid monosodium salt dihydrate]: 112.7 Å². With `Cc1nc(C)nc(N2C[C@@H](C)N(c3ccnc([C@@H](C)O)n3)[C@@H](C)C2)n1`, the “collision cross section in nitrogen” value by setting is: under setting [2], 191.2 Å²; under setting [3], 190.4 Å²; under setting [1], 183.4 Å²; under setting [4], 192.5 Å². As to `CSc1nc(NC2CC2)nc(NC(C)(C)C)n1` [Cybutryne], the “collision cross section in nitrogen” value is 162.8 Å² under setting [2] and 162.4 Å² under setting [3]. Consider `CCCCC(CC)C(=O)O` (stereo unspecified) [Potassium 2-ethylhexanoate], for which the “collision cross section in nitrogen” value under setting [4] is given as 137.8 Å². As to `CCSCc1ccccc1OC(=O)NC` [Ethiofencarb], the “collision cross section in nitrogen” value under setting [1] is on record as 153.7 Å². As to `Cc1ncc(CO)c(CO)c1O` [Pyridoxine hydrochloride], the “collision cross section in nitrogen” value stood at 133.7 Å² under setting [2], 144 Å² under setting [1] and 133.3 Å² under setting [4].
